Measured values published in patent publication US5817667A, “Compounds and methods for the treatment of cancer” (University of Georgia Research Foudation, priority 1994, dated 1998).

Columns and labels:
NCI-H322M [1] = conditions: Non-Small Cell Lung Cancer; 48 hours exposure
MDA-N = test: NCI cancer screening, growth inhibition (SRB); type: cell-based; conditions: Breast Cancer, 48 hours exposure
OVCAR-5 = test: NCI cancer screening, growth inhibition (SRB); type: cell-based; conditions: Ovarian Cancer, 48 hours exposure
Leukemia P388 cells = test: In vivo treatment of leukemia P388 cells implanted ip in BDF1 mice
NCI-H322M [2] = test: cells; conditions: Homo sapiens, 48 h, read-out: Log10 GI50 (converted)
OVCAR-4 = test: NCI cancer screening, growth inhibition (SRB); type: cell-based
HOP-62 = test: NCI cancer screening, growth inhibition (SRB); type: cell-based; conditions: Non-Small Cell Lung Cancer, 48 hours exposure
MALME-3M = test: NCI cancer screening, growth inhibition (SRB); type: cell-based; conditions: Melanoma, 48 hours exposure
M14 = test: NCI cancer screening, growth inhibition (SRB); type: cell-based; conditions: Melanoma, 48 hours exposure
RXF-393 = test: NCI cancer screening, growth inhibition (SRB); type: cell-based; conditions: Renal Cancer, 48 hours exposure
HCT-116 = test: NCI cancer screening, growth inhibition (SRB); type: cell-based; conditions: Colon Cancer, 48 hours exposure
MDA-MB-435 = test: NCI cancer screening, growth inhibition (SRB); type: cell-based; conditions: Homo sapiens, MDA-MB-435, 48 h, read-out: Log10 GI50 (converted)
UACC-62 = test: NCI cancer screening, growth inhibition (SRB); type: cell-based; conditions: Melanoma, 48 hours exposure
UO-31 = test: NCI cancer screening, growth inhibition (SRB); type: cell-based; conditions: Renal Cancer, 48 hours exposure
T-47D = test: NCI cancer screening, growth inhibition (SRB); type: cell-based
[3] = NCI cancer screening, growth inhibition (SRB); type: cell-based; conditions: Leukemia; 48 hours exposure; read-out: Log10 GI50 (converted)
BSOLT-4 = test: NCI cancer screening, growth inhibition (SRB); type: cell-based; conditions: Leukemia; 48 hours exposure
DU-145 = test: NCI cancer screening, growth inhibition (SRB); type: cell-based; conditions: Prostate Cancer; 48 hours exposure
U251 = test: NCI cancer screening, growth inhibition (SRB); type: cell-based; conditions: CNS Cancer, 48 hours exposure
HT29 = test: NCI cancer screening, growth inhibition (SRB); type: cell-based
[4] = Non-Small Cell Lung Cancer; 48 hours exposure
PC-3 = test: NCI cancer screening, growth inhibition (SRB); type: cell-based; conditions: Prostate Cancer, 48 hours exposure
SR = test: NCI cancer screening, growth inhibition (SRB); type: cell-based; conditions: Leukemia, 48 hours exposure
MCF7 = test: NCI cancer screening, growth inhibition (SRB); type: cell-based; conditions: Breast Cancer, 48 hours exposure
CCRF-CEM = test: NCI cancer screening, growth inhibition (SRB); type: cell-based; conditions: Leukemia, 48 hours exposure
NCI-H23 = test: NCI cancer screening, growth inhibition (SRB); type: cell-based; conditions: Non-Small Cell Lung Cancer, 48 hours exposure
RL-60(TB) = test: NCI cancer screening, growth inhibition (SRB); type: cell-based; conditions: Leukemia, 48 hours exposure
SP-295 = test: NCI cancer screening, growth inhibition (SRB); type: cell-based; conditions: CNS Cancer, 48 hours exposure
BT-549 = test: NCI cancer screening, growth inhibition (SRB); type: cell-based; conditions: Breast Cancer, 48 hours exposure
CAKI-1 = test: NCI cancer screening, growth inhibition (SRB); type: cell-based; conditions: Renal Cancer, 48 hours exposure
HCT-15 = test: NCI cancer screening, growth inhibition (SRB); type: cell-based; conditions: Colon Cancer, 48 hours exposure
mice = test: Toxicity to mice in the P388 leukemia protocol; type: in vivo, BDF1 mice; conditions: 75 mg/kg/dose ip, twice daily for five days
Protocol: 10^6 Leukemia P388 cells were implanted ip to BDF1 mice obtained from Southern Research Institute, Alabama. L(-)-OddC was administered ip twice daily for five days starting one day after tumor cell implantation.

RPMI-2.26 = test: NCI cancer screening, growth inhibition (SRB); type: cell-based; conditions: 48 h, read-out: Log10 GI50 (converted)
[5] = 25 mg/kg ip, twice a day, days 1 to 5
[6] = read-out: Log10 GI50 (converted)

**Q.** Which “Log10 TGI” value (NCI-H322M [1]) does the source give for Nc1ccn([C@@H]2CO[C@H](CO)O2)c(=O)n1 [(-)-OddC, (-)-(2S,4S)-1-(2-hydroxymethyl-1,3-dioxolan-4-yl)cytosine] here?
**A.** Its value is over -4.00.

**Q.** What about the “Log10 TGI” value (MDA-N) of the same molecule?
**A.** Its value is over -4.00.

**Q.** And the GI50 (MDA-N; Homo sapiens, MDA-N, read-out: Log10 GI50 (converted))?
**A.** The GI50 was 46800 nM.

**Q.** What about the GI50 (OVCAR-5; Homo sapiens, OVCAR-5, read-out: Log10 GI50 (converted)) of the same molecule?
**A.** Its GI50 is 38900 nM.

**Q.** And the “Log10 TGI” value (OVCAR-5)?
**A.** The value was over -4.00.

**Q.** And the “Cures/Total (survivors equal or greater than 45 day life span)” value (Leukemia P388 cells; [5])?
**A.** The value was 1/6.

**Q.** What about the “ILS (Increased Life Span percent above control)” value (Leukemia P388 cells; [5]) of the same molecule?
**A.** Its value is 103%.

**Q.** What about the “Mean Survival Time” value (Leukemia P388 cells; 25 mg/kg ip, twice a day, days 1 to 5 (control 13.3 days)) of the same molecule?
**A.** Its value is 27 days.

**Q.** What about the “life span increase of the remaining five mice” value (Leukemia P388 cells; 25 mg/kg/dose ip, twice daily for five days) of the same molecule?
**A.** Its value is 103%.

**Q.** What about the long term survivors (Leukemia P388 cells; of six mice treated with 25 mg/kg/dose) of the same molecule?
**A.** The long term survivors was “one long term survivor”.

**Q.** What about the GI50 (NCI-H322M [2]) of the same molecule?
**A.** Its GI50 is over 100000 nM.

**Q.** And the GI50 (OVCAR-4; Homo sapiens, OVCAR-4, 48 h, read-out: Log10 GI50 (converted))?
**A.** Its GI50 is over 100000 nM.

**Q.** And the “Log10 TGI” value (OVCAR-4; Ovarian Cancer, 48 hours exposure)?
**A.** The value was over -4.00.

**Q.** What about the GI50 (HOP-62; Homo sapiens, HOP-62, read-out: Log10 GI50 (converted)) of the same molecule?
**A.** The GI50 was 589 nM.

**Q.** What about the “Log10 TGI” value (HOP-62) of the same molecule?
**A.** The value was -4.71.

**Q.** What about the GI50 (MALME-3M; Homo sapiens, Malme-3M, read-out: Log10 GI50 (converted)) of the same molecule?
**A.** Its GI50 is 30900 nM.

**Q.** And the “Log10 TGI” value (MALME-3M)?
**A.** Its value is over -4.00.

**Q.** What about the GI50 (M14; Homo sapiens, M14, read-out: Log10 GI50 (converted)) of the same molecule?
**A.** Its GI50 is 537 nM.

**Q.** What about the “Log10 TGI” value (M14) of the same molecule?
**A.** Its value is -5.07.

**Q.** And the GI50 (RXF-393; Homo sapiens, RXF 393, read-out: Log10 GI50 (converted))?
**A.** The GI50 was 676 nM.

**Q.** What about the “Log10 TGI” value (RXF-393) of the same molecule?
**A.** Its value is over -4.00.

**Q.** And the “Log10 TGI” value (HCT-116)?
**A.** The value was over -4.00.

**Q.** And the GI50 (HCT-116; Homo sapiens, HCT-116, read-out: Log10 GI50 (converted))?
**A.** The GI50 was 5890 nM.

**Q.** What about the GI50 (MDA-MB-435) of the same molecule?
**A.** The GI50 was 24000 nM.

**Q.** What about the GI50 (UACC-62; Homo sapiens, UACC-62, read-out: Log10 GI50 (converted)) of the same molecule?
**A.** The GI50 was 2950 nM.

**Q.** And the “Log10 TGI” value (UACC-62)?
**A.** Its value is over -4.00.

**Q.** And the GI50 (UO-31; Homo sapiens, UO-31, read-out: Log10 GI50 (converted))?
**A.** The GI50 was 2510 nM.

**Q.** What about the “Log10 TGI” value (UO-31) of the same molecule?
**A.** Its value is over -4.00.

**Q.** What about the “Log10 TGI” value (T-47D; Breast Cancer, 48 hours exposure) of the same molecule?
**A.** Its value is over -4.00.

**Q.** And the GI50 (T-47D; Homo sapiens, T47D, 48 h, read-out: Log10 GI50 (converted))?
**A.** The GI50 was over 100000 nM.

**Q.** What about the GI50 [3] of the same molecule?
**A.** The GI50 was 219 nM.

**Q.** And the “Log10 TGI” value (BSOLT-4)?
**A.** Its value is -4.39.

**Q.** What about the “Log10 TGI” value (DU-145) of the same molecule?
**A.** The value was over -4.00.

**Q.** And the “Log10 TGI” value (U251)?
**A.** Its value is over -4.00.

**Q.** What about the GI50 (U251; Homo sapiens, U-251, read-out: Log10 GI50 (converted)) of the same molecule?
**A.** The GI50 was 12300 nM.

**Q.** And the “Log10 TGI” value (HT29; Colon Cancer, 48 hours exposure)?
**A.** Its value is over -4.00.

**Q.** What about the GI50 (HT29; Homo sapiens, HT-29, 48 h, read-out: Log10 GI50 (converted)) of the same molecule?
**A.** Its GI50 is over 100000 nM.

**Q.** And the “Log10 TGI” value [4]?
**A.** Its value is over -4.00.

**Q.** What about the GI50 (PC-3; Homo sapiens, PC-3, read-out: Log10 GI50 (converted)) of the same molecule?
**A.** Its GI50 is 513 nM.

**Q.** And the “Log10 TGI” value (PC-3)?
**A.** The value was over -4.00.

**Q.** What about the GI50 (SR; Homo sapiens, SR, read-out: Log10 GI50 (converted)) of the same molecule?
**A.** The GI50 was 1120 nM.

**Q.** What about the “Log10 TGI” value (SR) of the same molecule?
**A.** Its value is over -4.00.

**Q.** What about the “Log10 TGI” value (MCF7) of the same molecule?
**A.** The value was over -4.00.

**Q.** And the GI50 (MCF7; Homo sapiens, MCF7, read-out: Log10 GI50 (converted))?
**A.** Its GI50 is 1120 nM.

**Q.** What about the GI50 (CCRF-CEM; Homo sapiens, CCRF-CEM, read-out: Log10 GI50 (converted)) of the same molecule?
**A.** Its GI50 is 229 nM.

**Q.** What about the “Log10 TGI” value (CCRF-CEM) of the same molecule?
**A.** Its value is over -4.00.

**Q.** What about the GI50 (NCI-H23; Homo sapiens, NCI-H23, read-out: Log10 GI50 (converted)) of the same molecule?
**A.** The GI50 was 12000 nM.

**Q.** What about the “Log10 TGI” value (NCI-H23) of the same molecule?
**A.** Its value is over -4.00.

**Q.** What about the “Log10 TGI” value (RL-60(TB)) of the same molecule?
**A.** The value was over -4.00.

**Q.** And the GI50 (RL-60(TB); [6])?
**A.** Its GI50 is 525 nM.

**Q.** And the “Log10 TGI” value (SP-295)?
**A.** Its value is over -4.00.

**Q.** What about the GI50 (SP-295; [6]) of the same molecule?
**A.** Its GI50 is 575 nM.

**Q.** And the “Log10 TGI” value (BT-549)?
**A.** The value was over -4.00.

**Q.** What about the GI50 (BT-549; Homo sapiens, BT-549, read-out: Log10 GI50 (converted)) of the same molecule?
**A.** The GI50 was 25700 nM.

**Q.** And the GI50 (CAKI-1; Homo sapiens, CAKI-1, read-out: Log10 GI50 (converted))?
**A.** Its GI50 is 224 nM.

**Q.** And the “Log10 TGI” value (CAKI-1)?
**A.** Its value is -4.87.

**Q.** What about the “Log10 TGI” value (HCT-15) of the same molecule?
**A.** Its value is over -4.00.

**Q.** What about the GI50 (HCT-15; Homo sapiens, HCT-15, read-out: Log10 GI50 (converted)) of the same molecule?
**A.** The GI50 was 4070 nM.

**Q.** And the “toxicity to the mice” value (mice)?
**A.** Its value is “toxic to the mice”.

**Q.** What about the GI50 (RPMI-2.26) of the same molecule?
**A.** The GI50 was 93300 nM.
